Source: ChEMBL document CHEMBL1921675, “Synthesis and cytotoxic evaluation of novel paraconic acid analogs” (Bioorg Med Chem Lett, 2011)

Legend:
KB [1] = assay: Antiproliferative activity against human KB cells assessed as cellular growth inhibition at 10 uM after 72 hrs by MTS assay; format: functional; details: read-out: GI
HCT-116 [2] = assay: Antiproliferative activity against human HCT116 cells assessed as cellular growth inhibition at 10 uM after 72 hrs by MTS assay; format: functional; details: HCT-116, 72 h, read-out: GI
MCF7 [3] = assay: Antiproliferative activity against human MCF7 cells assessed as cellular growth inhibition at 10 uM after 72 hrs by MTS assay; format: functional; details: MCF7, 72 h, read-out: GI
HL-60 [4] = assay: Antiproliferative activity against human HL60 cells assessed as cellular growth inhibition at 10 uM after 72 hrs by MTS assay; format: functional; details: HL-60, 72 h, read-out: GI
KB [5] = assay: Antiproliferative activity against human KB cells after 72 hrs by MTS assay; format: functional, cell-based
HCT-116 [6] = assay: Antiproliferative activity against human HCT116 cells after 72 hrs by MTS assay; format: functional, cell-based; details: HCT-116, 72 h
MCF7 [7] = assay: Antiproliferative activity against human MCF7 cells after 72 hrs by MTS assay; format: functional, cell-based; details: MCF7, 72 h
HL-60 [8] = assay: Antiproliferative activity against human HL60 cells after 72 hrs by MTS assay; format: functional, cell-based; details: HL-60, 72 h
PC-3 = assay: Antiproliferative activity against human PC3 cells assessed as cellular growth inhibition at 10 uM after 72 hrs by MTS assay; format: functional; details: PC-3, 72 h, read-out: GI
SK-OV-3 = assay: Antiproliferative activity against human SKOV3 cells assessed as cellular growth inhibition at 10 uM after 72 hrs by MTS assay; format: functional; details: SK-OV-3, 72 h, read-out: GI
[9] = Antiproliferative activity against human MCF7/R cells assessed as cellular growth inhibition at 10 uM after 72 hrs by MTS assay; format: functional; details: MCF7R, read-out: GI
[10] = Antiproliferative activity against human HL60R cells assessed as cellular growth inhibition at 10 uM after 72 hrs by MTS assay; format: functional; details: read-out: GI

SMILES	inhibition of growth at 10 µM (KB [1])	inhibition of growth at 10 µM (HCT-116 [2])	inhibition of growth at 10 µM (MCF7 [3])	inhibition of growth at 10 µM (HL-60 [4])	IC50 (KB [5])	IC50 (HCT-116 [6])	IC50 (MCF7 [7])	IC50 (HL-60 [8])	inhibition of growth at 10 µM (PC-3)	inhibition of growth at 10 µM (SK-OV-3)	inhibition of growth at 10 µM [9]	inhibition of growth at 10 µM [10]
COC(=O)[C@@]1(Cc2ccc(OC)cc2)CC(=O)O[C@]1(C)c1ccccc1	98%	56%	59%	68%	–	–	–	–	–	–	–	–
COC(=O)C1(Cc2ccccc2)CC(=O)OC1c1ccccc1 (mixture of isomers)	18%	0%	0%	22%	–	–	–	–	–	–	–	–
COC(=O)C1(Cc2ccc(OC)cc2)CC(=O)OC1c1ccccc1 (mixture of isomers)	19%	4%	0%	15%	–	–	–	–	–	–	–	–
COC(=O)c1ccc(CC2(C(=O)OC)CC(=O)OC2c2ccccc2)cc1 (mixture of isomers)	12%	0%	0%	19%	–	–	–	–	–	–	–	–
COC(=O)C1(Cc2cccc(C(F)(F)F)c2)CC(=O)OC1c1ccccc1 (mixture of isomers)	39%	14%	11%	34%	–	–	–	–	–	–	–	–
COC(=O)C1(Cc2ccc3c(c2)OCO3)CC(=O)OC1c1ccccc1 (mixture of isomers)	0%	18%	11%	18%	–	–	–	–	–	–	–	–
COC(=O)C1(Cc2ccc(OC)cc2)CC(=O)OC1c1ccccc1C(F)(F)F (mixture of isomers)	31%	0%	0%	23%	–	–	–	–	–	–	–	–
COC(=O)C1(Cc2ccc(OC)cc2)CC(=O)OC1c1ccc(C(F)(F)F)cc1 (mixture of isomers)	0%	0%	4%	2%	–	–	–	–	–	–	–	–
COC(=O)C1(Cc2ccc(OC)cc2)CC(=O)OC1c1ccc(F)cc1 (mixture of isomers)	33%	0%	4%	37%	–	–	–	–	–	–	–	–
COC(=O)C1(Cc2ccc(OC)cc2)CC(=O)OC1c1ccco1 (mixture of isomers)	32%	0%	0%	29%	–	–	–	–	–	–	–	–
CCCCCCC1OC(=O)CC1(Cc1ccc(OC)cc1)C(=O)OC (mixture of isomers)	13%	12%	28%	8%	–	–	–	–	–	–	–	–
COC(=O)C1(Cc2ccccc2)CC(=O)OC1(C)c1ccccc1 (mixture of isomers)	6%	9%	13%	22%	–	–	–	–	–	–	–	–
COC(=O)C1(Cc2ccc(OC)cc2)CC(=O)OC1(C)c1ccccc1 (mixture of isomers)	95%	61%	56%	82%	590 nM	1350 nM	2760 nM	870 nM	68%	76%	82%	92%
COC(=O)C1(Cc2cccc(C(F)(F)F)c2)CC(=O)OC1(C)c1ccccc1 (mixture of isomers)	21%	22%	20%	21%	–	–	–	–	–	–	–	–
COC(=O)C1(Cc2ccc(OC)cc2)CC(=O)OC1(C)c1cccc(C(F)(F)F)c1 (mixture of isomers)	38%	30%	46%	52%	–	–	–	–	–	–	–	–
CCC1(c2ccccc2)OC(=O)CC1(Cc1ccc(OC)cc1)C(=O)OC (mixture of isomers)	11%	28%	21%	30%	–	–	–	–	–	–	–	–
COC(=O)C1(Cc2ccc(OC)cc2)CC(=O)OC1(c1ccccc1)C(F)(F)F (mixture of isomers)	56%	20%	8%	64%	–	–	–	–	–	–	–	–
COC(=O)C1(Cc2ccccc2)CC(=O)OC12CCCCC2 (racemic)	7%	0%	1%	4%	–	–	–	–	–	–	–	–
